Data reported in patent US6780821B1, “Substituted phenyl uracils” (Bayer Aktiengesellschaft, priority 1998, dated 2004).

| melting point [°C] | Compound |
| --- | --- |
| 84 | COc1ccc(Oc2cc(-n3c(=O)cc(C(F)(F)F)[nH]c3=O)c(F)cc2C#N)cc1 [Example 1, 4-(3,6-dihydro-2,6-dioxo-4-trifluoromethyl-1(2H)-pyrimidin-1-yl)-5-fluoro-2-(4-methoxy-phenoxy)-benzonitrile] |
| 62 | COc1ccc(Oc2cc(-n3c(=O)cc(C(F)(F)F)n(C)c3=O)c(F)cc2C#N)cc1 [Example 2, 4-(3,6-dihydro-2,6-dioxo-3-methyl-4-trifluoromethyl-1(2H)-pyrimidin-1-yl)-5-fluoro-2-(4-methoxy-phenoxy)-benzonitrile] |
